According to patent publication US12281304B2, “Compositions and methods for treating and preventing muscular disorders and dystrophies, steroid side effects, and inflammation” (Children's National Medical Center, priority 2018, dated 2025):

Test system: miRNAs in diaphragm muscle of mdx mice
Test: TaqMan low-density array (TLDA) miRNA profiling of diaphragm, discovery set (prophylactic mdx trial)
Assay type: in vivo, mouse
Excerpt: Archival muscle samples (diaphragm) from two separate preclinical studies were obtained, with each trial showing a significant benefit from both prednisolone and vamorolone drug treatments (23). Prednisolone was used because it is the active form of prednisone, the current DMD standard of care. The first, “discovery set” of diaphragm muscles was from a prophylactic trial design where 2-week old (postnatal day 15) mdx or wild type control mice received oral dosing for 6 weeks with vehicle (cherry syrup), prednisolone (5 mg/kg), or vamorolone (15 mg/kg) as previously reported (23). The second, “validation set” of diaphragm muscles was from an extended trial in older mice where mdx or wild type mice were subjected to treadmill running to unmask mild phenotypes. Mice in this validation set were treated with either vehicle, prednisolone (5 mg/kg) or vamorolone (45 mg/kg) for four months beginning at two months of age (23). At the endpoint of each trial, diaphragm muscles were harvested and frozen in liquid nitrogen-cooled isopentane.
We extracted total RNA from 5 diaphragm muscles per treatment group in the discovery set of samples from 8-week old mice. RNA was extracted using a modified TRIzol protocol with isopropanol precipitation at −20° C. overnight. This RNA was reverse transcribed to cDNA using a High Capacity cDNA Reverse Transcription Kit with RNase Inhibitor (ThermoFisher; Carlsbad, Calif.), with miRNA-specific Megaplex RT Primers, Rodent Pools Set version 3.0 (ThermoFisher; Carlsbad, Calif.). Levels of each of the miRNAs were profiled in the discovery set using TAQMAN Array Rodent MiRNA A+B Cards Set v3.0 (ThermoFisher; Carlsbad, Calif.).
In the discovery set experiments, levels of each miRNA were quantified in TaqMan low-density arrays using ThermoFisher Cloud software with the Relative Quantification Application (ThermoFisher; Carlsbad, Calif.) tool. Data was analyzed by ANOVA with post-hoc comparison of each group to the mdx vehicle-treated group. […] A P-value of P≤0.05 was set as the significance threshold, without adjustment for multiple comparisons. To reduce false-positive discovery in this setting, an evidence-based approach was used to identify efficacy associated miRNAs where 1) results from the multiple groups were cross-referenced, and 2) all candidate miRNAs identified in this discovery set were then assayed in a separate validation set of mice. For the validation set experiments, levels of each individual miRNA were assayed in samples from a second, independent preclinical trial in adult mdx mice. Data from individual TaqMan Assays was quantified using QuantStudio Real-Time PCR version 1.3 software (Applied Biosystems; Foster City, Calif.). The levels of all miRNAs were normalized to the geometric mean of multiple control genes (60, 70). Comparison of groups was made by ANOVA with Holm-Sidak post-hoc test comparing each group to mdx vehicle.
To visualize behavior of miRNAs within individual mice for each group, heat map images were generated. Heat maps were generated using Rq values of TLDA array data exported from the Relative Quantification Application of the ThermoFisher Cloud software (ThermoFisher; Carlsbad, Calif.) tool. Heat maps of miRNA expression were produced using Hierarchical Clustering Explorer Version 3.5 (at www.cs.umd.edu/hcil/multi-cluster/) produced by the Human Computer Interaction Laboratory (University of Maryland; College Park, Md.).
To examine miRNA expression TaqMan low density qPCR array cards were used to profile approximately 750 miRNAs within diaphragm muscle from a discovery set of mice. Samples for this experiment came from a trial that utilized a prophylactic approach (23). Briefly, mdx mice undergo a stage of peak severity characterized by widespread inflammation and necrosis from approximately 3-8 weeks of age, followed by a recovery stage where mice show milder phenotypes (25). […]

[1] = discovery set diaphragm muscle, mdx mice, Pred 5 mg/kg, Vam 15 mg/kg
[2] = mdx diaphragm, vs untreated mdx, Pred 5 mg/kg, Vam 15 mg/kg

Compound: C[C@]12C=CC(=O)C=C1CC[C@@H]1[C@@H]2[C@@H](O)C[C@@]2(C)[C@H]1CC[C@]2(O)C(=O)CO [prednisolone]
- miRNA 142-3p % expression in comparison to mdx vehicle [1]: 50 ± 13 %
- miRNA 142-5p % expression in comparison to mdx vehicle [1]: 44 ± 11 %
- miRNA 146a % expression in comparison to mdx vehicle [1]: 39 ± 6 %
- miRNA 301a % expression in comparison to mdx vehicle [1]: 70 ± 18 %
- miRNA 324-3p % expression in comparison to mdx vehicle [1]: 71 ± 14 %
- miRNA 455-3p % expression in comparison to mdx vehicle [1]: 62 ± 18 %
- miRNA 455-5p % expression in comparison to mdx vehicle [1]: 64 ± 30 %
- miRNA 497 % expression in comparison to mdx vehicle [1]: 49 ± 11 %
- miRNA 652 % expression in comparison to mdx vehicle [1]: 62 ± 14 %
- number of miRNAs significantly changed in dystrophic muscle (mdx diaphragm, 8-week-old mice, oral dosing 6 weeks, prednisolone 5 mg/kg, vamorolone 15 mg/kg, versus untreated mdx, P≤0.05): 76
- expression of 14q32 (mouse 12F1) cluster miRNAs miR-134, miR-370, miR-409, miR-433, miR-493, miR-543 (mdx diaphragm, discovery set, prednisolone 5 mg/kg): specifically activated
- number of miRNAs significantly increased by treatment (mdx diaphragm, discovery set, prednisolone 5 mg/kg, vamorolone 15 mg/kg, P≤0.05): 9
- expression of the nine efficacy-associated miRNAs elevated in dystrophy (mdx diaphragm, discovery set, versus mdx vehicle): returned towards healthy wild type levels
- Rq hsa-let-7i#-002172 [2]: 0.714
- Rq hsa-miR-30e-3p-000422 [2]: 0.739
- Rq hsa-miR-22#-002301 [2]: 0.641
- Rq hsa-miR-140-3p-002234 [2]: 0.681
- Rq hsa-miR-143-000466 [2]: 1.096
- Rq hsa-miR-154#-000478 [2]: 1.585
- Rq hsa-miR-190b-002263 [2]: 0.547
- Rq hsa-miR-200c-000505 [2]: 0.486
- Rq hsa-miR-206-000510 [2]: 1.017
- Rq hsa-miR-213-000516 [2]: 0.622
- Rq hsa-miR-214#-002293 [2]: 0.82
- Rq hsa-miR-214-000517 [2]: 0.767
- Rq hsa-miR-376a#-001287 [2]: 0.978
- Rq hsa-miR-455-001280 [2]: 0.6
- Rq hsa-miR-744#-002325 [2]: 0.537
- Rq mmu-let-7e-002406 [2]: 0.66
- Rq mmu-let-7a-000377 [2]: 0.491
- Rq mmu-let-7b-000378 [2]: 0.655
- Rq mmu-let-7c-1#-002479 [2]: 1.427
- Rq mmu-let-7c-000379 [2]: 0.651
- Rq mmu-let-7i-002221 [2]: 0.775
- Rq mmu-let-7d#-001178 [2]: 0.556
- Rq mmu-let-7d-002283 [2]: 0.714
- Rq mmu-miR-1-002222 [2]: 0.868
- Rq mmu-miR-15a-000389 [2]: 0.635
- Rq mmu-miR-16-000391 [2]: 0.663
- Rq mmu-miR-18a-002422 [2]: 1.284
- Rq mmu-miR-19a-000395 [2]: 0.846
- Rq mmu-miR-20a#-002491 [2]: 0.771
- Rq mmu-miR-21#-002493 [2]: 0.707
- Rq mmu-miR-21-000397 [2]: 0.659
- Rq mmu-miR-23b-000400 [2]: 0.621
- Rq mmu-miR-25-000403 [2]: 0.75
- Rq mmu-miR-26a-000405 [2]: 0.7
- Rq mmu-miR-27b-000409 [2]: 0.796
- Rq mmu-miR-28-000411 [2]: 0.759
- Rq mmu-miR-30e-002223 [2]: 0.785
- Rq mmu-miR-30a-000417 [2]: 0.756
- Rq mmu-miR-30b-000602 [2]: 0.785
- Rq mmu-miR-30c-000419 [2]: 0.739
- Rq mmu-miR-31#-002495 [2]: 0.955
- Rq mmu-miR-31-000185 [2]: 1.028
- Rq mmu-miR-34a-000426 [2]: 0.712
- Rq mmu-miR-34b-3p-002618 [2]: 0.607
- Rq mmu-miR-34c#-002584 [2]: 0.623
- Rq mmu-miR-34c-000428 [2]: 0.655
- Rq mmu-miR-99b-000436 [2]: 0.783
- Rq mmu-miR-100-000437 [2]: 0.586
- Rq mmu-miR-103-000439 [2]: 0.679
- Rq mmu-miR-122-002245 [2]: 0.241
- Rq mmu-miR-125a-3p-002199 [2]: 0.666
- Rq mmu-miR-125b#-002508 [2]: 0.453
- Rq mmu-miR-125b-3p-002378 [2]: 0.561
- Rq mmu-miR-125b-5p-000449 [2]: 0.676
- Rq mmu-miR-126-3p-002228 [2]: 0.697
- Rq mmu-miR-126-5p-000451 [2]: 0.682
- Rq mmu-miR-127-000452 [2]: 1.382
- Rq mmu-miR-128a-002216 [2]: 0.871
- Rq mmu-miR-130a-000454 [2]: 0.758
- Rq mmu-miR-130b#-002460 [2]: 0.443
- Rq mmu-miR-130b-000456 [2]: 0.757
- Rq mmu-miR-133a-002246 [2]: 0.942
- Rq mmu-miR-134-001186 [2]: 1.922
- Rq mmu-miR-136-002511 [2]: 0.705
- Rq mmu-miR-138#-002554 [2]: 0.214
- Rq mmu-miR-140-001187 [2]: 0.775
- Rq mmu-miR-142-3p-000464 [2]: 0.485
- Rq mmu-miR-142-5p-002248 [2]: 0.438
- Rq mmu-miR-143-002249 [2]: 0.742
- Rq mmu-miR-145-002278 [2]: 0.694
- Rq mmu-miR-146a-000468 [2]: 0.397
- Rq mmu-miR-146b#-002453 [2]: 0.088
- Rq mmu-miR-146b-001097 [2]: 0.555
- Rq mmu-miR-148a-000470 [2]: 0.602
- Rq mmu-miR-148b-000471 [2]: 0.512
- Rq mmu-miR-150#-002570 [2]: 0.297
- Rq mmu-miR-150-000473 [2]: 0.516
- Rq mmu-miR-151-3p-001190 [2]: 0.877
- Rq mmu-miR-152-000475 [2]: 0.721
- Rq mmu-miR-154-000477 [2]: 0.606
- Rq mmu-miR-155-002571 [2]: 0.742
- Rq mmu-miR-181a-000480 [2]: 0.728
- Rq mmu-miR-181c-000482 [2]: 0.624
- Rq mmu-miR-185-002271 [2]: 0.818
- Rq mmu-miR-186-002285 [2]: 0.866
- Rq mmu-miR-191-002299 [2]: 0.771
- Rq mmu-miR-193#-002577 [2]: 0.799
- Rq mmu-miR-195-000494 [2]: 0.491
- Rq mmu-miR-199a-3p-002304 [2]: 0.844
- Rq mmu-miR-199b-001131 [2]: 0.771
- Rq mmu-miR-200c-002300 [2]: 0.508
- Rq mmu-miR-203-000507 [2]: 0.575
- Rq mmu-miR-204-000508 [2]: 0.722
- Rq mmu-miR-210-000512 [2]: 0.759
